Source: patent US20250171438A1 (Agios Pharmaceuticals, Inc., priority 2022, published 2025)

Target: T1, human PAH with the R408W mutation (Homo sapiens, UniProt P00439, R408W)
T1 construct: expressed in transfected cells
T1 sequence (P00439 1-452 R408W): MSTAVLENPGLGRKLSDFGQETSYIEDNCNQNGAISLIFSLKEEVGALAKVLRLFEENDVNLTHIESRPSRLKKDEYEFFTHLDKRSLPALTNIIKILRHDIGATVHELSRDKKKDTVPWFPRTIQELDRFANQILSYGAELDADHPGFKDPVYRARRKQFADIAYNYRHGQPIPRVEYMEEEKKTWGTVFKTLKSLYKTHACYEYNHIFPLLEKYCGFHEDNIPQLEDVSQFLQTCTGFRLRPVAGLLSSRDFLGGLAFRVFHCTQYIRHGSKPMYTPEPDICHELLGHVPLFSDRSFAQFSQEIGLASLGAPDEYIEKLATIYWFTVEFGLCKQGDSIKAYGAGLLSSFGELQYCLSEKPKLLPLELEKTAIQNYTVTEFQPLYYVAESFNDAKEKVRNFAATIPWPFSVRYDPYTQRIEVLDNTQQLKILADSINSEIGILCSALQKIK
Experiment: Cell Based Phenylalanine Flux Assay
Details: A375 cells expressing human R408W PAH; 24 hrs compound incubation; 13C-Tyrosine by LC-MS; average where tested multiple times; read-out: AC50

Question: `CC(C)(O)c1ncc(C(=O)N2CCc3[nH]cnc3[C@H]2c2nc3ccccc3s2)o1` [Example 1448] was tested. Which AC50 did it give?
Answer: The AC50 was 500 to 1000 nM.

Question: How did the AC50 turn out when `O=C(c1ocnc1-c1ccccn1)N1CCc2[nH]cnc2[C@@H]1c1nc2ccccc2s1` [Example 1449, (R)-(4-(benzo[d]thiazol-2-yl)-6,7-dihydro-1H-imidazo[4,5-c]pyridin-5(4H)-yl)(4-(pyridin-2-yl)oxazol-5-yl)methanone] was run?
Answer: Its AC50 is over 5000 nM.

Question: With `O=C(c1ocnc1-c1ccccn1)N1CCc2[nH]cnc2[C@H]1c1nc2ccccc2s1` [Example 1450] as the compound, how does the AC50 read?
Answer: The AC50 was 500 to 1000 nM.

Question: Which AC50 does the source give for `COCCc1ccc2c(C(=O)N3CCc4[nH]cnc4[C@H]3c3nc4ccccc4s3)cnn2c1` [Example 1451] here?
Answer: Its AC50 is under 500 nM.

Question: `COCCc1ccc2c(C(=O)N3CCc4[nH]cnc4[C@@H]3c3nc4ccccc4s3)cnn2c1` [Example 1452, (R)-(4-(benzo[d]thiazol-2-yl)-6,7-dihydro-1H-imidazo[4,5-c]pyridin-5(4H)-yl)(6-(2-methoxyethyl)pyrazolo[1,5-a]pyridin-3-yl)methanone] was tested. Which AC50 did it give?
Answer: Its AC50 is over 5000 nM.

Question: How did the AC50 turn out when `CN(C)CCc1ccc2c(C(=O)N3CCc4[nH]cnc4[C@H]3c3nc4ccccc4s3)cnn2c1` [Example 1453] was run?
Answer: Its AC50 is under 500 nM.

Question: For `CN(C)CCc1ccc2c(C(=O)N3CCc4[nH]cnc4[C@@H]3c3nc4ccccc4s3)cnn2c1` [Example 1454, (R)-(4-(benzo[d]thiazol-2-yl)-6,7-dihydro-1H-imidazo[4,5-c]pyridin-5(4H)-yl)(6-(2-(dimethylamino)ethyl)pyrazolo[1,5-a]pyridin-3-yl)methanone], which AC50 is on record?
Answer: Its AC50 is over 5000 nM.

Question: `CC(C)(F)c1ncc(C(=O)N2CCc3[nH]cnc3[C@H]2c2nc3ccccc3s2)o1` [Example 1455] was tested. Which AC50 did it give?
Answer: The AC50 was under 500 nM.

Question: With `CC(C)(F)c1ncc(C(=O)N2CCc3[nH]cnc3[C@@H]2c2nc3ccccc3s2)o1` [Example 1456, (R)-(4-(benzo[d]thiazol-2-yl)-6,7-dihydro-1H-imidazo[4,5-c]pyridin-5(4H)-yl)(2-(2-fluoropropan-2-yl)oxazol-5-yl)methanone] as the compound, how does the AC50 read?
Answer: Its AC50 is 1000 to 5000 nM.

Question: How did the AC50 turn out when `Cc1cnc(CC(=O)N2CCc3[nH]cnc3[C@H]2c2nc3ccccc3s2)s1` [Example 1457] was run?
Answer: Its AC50 is 1000 to 5000 nM.

Question: For `Cc1cnc(CC(=O)N2CCc3[nH]cnc3[C@@H]2c2nc3ccccc3s2)s1` [Example 1458, (R)-1-(4-(benzo[d]thiazol-2-yl)-6,7-dihydro-1H-imidazo[4,5-c]pyridin-5(4H)-yl)-2-(5-methylthiazol-2-yl)ethanone], which AC50 is on record?
Answer: The AC50 was 1000 to 5000 nM.

Question: Which AC50 does the source give for `O=C(Cc1ncc(C2CC2)s1)N1CCc2[nH]cnc2[C@H]1c1nc2ccccc2s1` [Example 1459] here?
Answer: Its AC50 is 500 to 1000 nM.

Question: For `O=C(Cc1ncc(C2CC2)s1)N1CCc2[nH]cnc2[C@@H]1c1nc2ccccc2s1` [Example 1460, (R)-1-(4-(benzo[d]thiazol-2-yl)-6,7-dihydro-1H-imidazo[4,5-c]pyridin-5(4H)-yl)-2-(5-cyclopropylthiazol-2-yl)ethanone], which AC50 is on record?
Answer: The AC50 was 1000 to 5000 nM.

Question: Which AC50 does the source give for `Cn1cc(-c2nnc(C(=O)N3CCc4[nH]cnc4[C@@H]3c3nc4ccccc4s3)o2)cn1` [Example 1461, (R)-(4-(benzo[d]thiazol-2-yl)-6,7-dihydro-1H-imidazo[4,5-c]pyridin-5(4H)-yl)(5-(1-methyl-1H-pyrazol-4-yl)-1,3,4-oxadiazol-2-yl)methanone] here?
Answer: The AC50 was 1000 to 5000 nM.

Question: `Cn1cc(-c2nnc(C(=O)N3CCc4[nH]cnc4[C@H]3c3nc4ccccc4s3)o2)cn1` [Example 1462] was tested. Which AC50 did it give?
Answer: The AC50 was 1000 to 5000 nM.

Question: For `CC(C)(F)c1ncc(C(=O)N2CCc3[nH]cnc3[C@H]2c2nc3ccccc3s2)s1` [Example 1463], which AC50 is on record?
Answer: The AC50 was under 500 nM.

Question: Which AC50 does the source give for `CC(C)(F)c1ncc(C(=O)N2CCc3[nH]cnc3[C@@H]2c2nc3ccccc3s2)s1` [Example 1464, (R)-(4-(benzo[d]thiazol-2-yl)-6,7-dihydro-1H-imidazo[4,5-c]pyridin-5(4H)-yl)(2-(2-fluoropropan-2-yl)thiazol-5-yl)methanone] here?
Answer: Its AC50 is 1000 to 5000 nM.

Question: For `Cc1nnc(C(=O)N2CCc3[nH]cnc3[C@H]2c2nc3c(F)cccc3s2)o1` [Example 1465, (S)-(4-(4-fluorobenzo[d]thiazol-2-yl)-6,7-dihydro-1H-imidazo[4,5-c]pyridin-5(4H)-yl)(5-methyl-1,3,4-oxadiazol-2-yl)methanone], which AC50 is on record?
Answer: The AC50 was 500 to 1000 nM.

Question: Which AC50 does the source give for `Cc1nnc(C(=O)N2CCc3[nH]cnc3[C@@H]2c2nc3c(F)cccc3s2)o1` [Example 1466, (R)-(4-(4-fluorobenzo[d]thiazol-2-yl)-6,7-dihydro-1H-imidazo[4,5-c]pyridin-5(4H)-yl)(5-methyl-1,3,4-oxadiazol-2-yl)methanone] here?
Answer: Its AC50 is 1000 to 5000 nM.

Question: Which AC50 does the source give for `Cc1nc(C(C)(C)O)oc1C(=O)N1CCc2[nH]cnc2[C@H]1c1nc2ccccc2s1` [Example 1469] here?
Answer: The AC50 was under 500 nM.

Question: `Cc1nc(C(C)(C)O)oc1C(=O)N1CCc2[nH]cnc2[C@@H]1c1nc2ccccc2s1` [Example 1470, (R)-(4-(benzo[d]thiazol-2-yl)-6,7-dihydro-1H-imidazo[4,5-c]pyridin-5(4H)-yl)(2-(2-hydroxypropan-2-yl)-4-methyloxazol-5-yl)methanone] was tested. Which AC50 did it give?
Answer: The AC50 was over 5000 nM.

Question: For `Cc1nc(C(C)(C)O)oc1C(=O)N1CCc2[nH]cnc2[C@H]1c1nc2c(F)cccc2s1` [Example 1471, (S)-(4-(4-fluorobenzo[d]thiazol-2-yl)-6,7-dihydro-1H-imidazo[4,5-c]pyridin-5(4H)-yl)(2-(2-hydroxypropan-2-yl)-4-methyloxazol-5-yl)methanone], which AC50 is on record?
Answer: Its AC50 is under 500 nM.

Question: Which AC50 does the source give for `Cc1nc(C(C)(C)O)oc1C(=O)N1CCc2[nH]cnc2[C@@H]1c1nc2c(F)cccc2s1` [Example 1472, (R)-(4-(4-fluorobenzo[d]thiazol-2-yl)-6,7-dihydro-1H-imidazo[4,5-c]pyridin-5(4H)-yl)(2-(2-hydroxypropan-2-yl)-4-methyloxazol-5-yl)methanone] here?
Answer: Its AC50 is 1000 to 5000 nM.

Question: With `CC(C)(O)c1ccc2c(C(=O)N3CCc4[nH]cnc4[C@H]3c3nc4ccccc4s3)cnn2c1` [Example 1473] as the compound, how does the AC50 read?
Answer: Its AC50 is under 500 nM.

Question: Which AC50 does the source give for `CC(C)(O)c1ccc2c(C(=O)N3CCc4[nH]cnc4[C@@H]3c3nc4ccccc4s3)cnn2c1` [Example 1474, (R)-(4-(benzo[d]thiazol-2-yl)-6,7-dihydro-1H-imidazo[4,5-c]pyridin-5(4H)-yl)(6-(2-hydroxypropan-2-yl)pyrazolo[1,5-a]pyridin-3-yl)methanone] here?
Answer: The AC50 was 1000 to 5000 nM.

Question: Which AC50 does the source give for `CC(C)(O)c1c(Br)ccc2c(C(=O)N3CCc4[nH]cnc4[C@H]3c3nc4ccccc4s3)cnn12` [Example 1475] here?
Answer: Its AC50 is under 500 nM.

Question: Which AC50 does the source give for `CC(C)(O)c1c(Br)ccc2c(C(=O)N3CCc4[nH]cnc4[C@@H]3c3nc4ccccc4s3)cnn12` [Example 1476, (R)-(4-(benzo[d]thiazol-2-yl)-6,7-dihydro-1H-imidazo[4,5-c]pyridin-5(4H)-yl)(6-bromo-7-(2-hydroxypropan-2-yl)pyrazolo[1,5-a]pyridin-3-yl)methanone] here?
Answer: The AC50 was 1000 to 5000 nM.

Question: How did the AC50 turn out when `CC(C)(O)c1ncc(C(=O)N2CCc3[nH]cnc3[C@H]2c2nc3c(F)cccc3s2)s1` [Example 1477, (S)-(4-(4-fluorobenzo[d]thiazol-2-yl)-6,7-dihydro-1H-imidazo[4,5-c]pyridin-5(4H)-yl)(2-(2-hydroxypropan-2-yl)thiazol-5-yl)methanone] was run?
Answer: Its AC50 is under 500 nM.

Question: How did the AC50 turn out when `CC(C)(O)c1ncc(C(=O)N2CCc3[nH]cnc3[C@@H]2c2nc3c(F)cccc3s2)s1` [Example 1478, (R)-(4-(4-fluorobenzo[d]thiazol-2-yl)-6,7-dihydro-1H-imidazo[4,5-c]pyridin-5(4H)-yl)(2-(2-hydroxypropan-2-yl)thiazol-5-yl)methanone] was run?
Answer: The AC50 was 1000 to 5000 nM.

Question: How did the AC50 turn out when `CC(C)(F)c1ccc2c(C(=O)N3CCc4[nH]cnc4[C@H]3c3nc4ccccc4s3)cnn2c1` [Example 1479] was run?
Answer: Its AC50 is under 500 nM.

Question: For `CC(C)(F)c1ccc2c(C(=O)N3CCc4[nH]cnc4[C@@H]3c3nc4ccccc4s3)cnn2c1` [Example 1480, (R)-(4-(benzo[d]thiazol-2-yl)-6,7-dihydro-1H-imidazo[4,5-c]pyridin-5(4H)-yl)(6-(2-fluoropropan-2-yl)pyrazolo[1,5-a]pyridin-3-yl)methanone], which AC50 is on record?
Answer: Its AC50 is 1000 to 5000 nM.

Question: Which AC50 does the source give for `CC(C)(O)c1cccc2c(C(=O)N3CCc4[nH]cnc4[C@H]3c3nc4ccccc4s3)cnn12` [Example 1481] here?
Answer: The AC50 was under 500 nM.

Question: `CC(C)(O)c1cccc2c(C(=O)N3CCc4[nH]cnc4[C@@H]3c3nc4ccccc4s3)cnn12` [Example 1482, (R)-(4-(benzo[d]thiazol-2-yl)-6,7-dihydro-1H-imidazo[4,5-c]pyridin-5(4H)-yl)(7-(2-hydroxypropan-2-yl)pyrazolo[1,5-a]pyridin-3-yl)methanone] was tested. Which AC50 did it give?
Answer: The AC50 was 1000 to 5000 nM.

Question: `CC(C)(O)c1ncc(C(=O)N2CCc3[nH]cnc3[C@H]2c2nc3c(F)cccc3s2)o1` [Example 1483, (S)-(4-(4-fluorobenzo[d]thiazol-2-yl)-6,7-dihydro-1H-imidazo[4,5-c]pyridin-5(4H)-yl)(2-(2-hydroxypropan-2-yl)oxazol-5-yl)methanone] was tested. Which AC50 did it give?
Answer: Its AC50 is 500 to 1000 nM.

Question: For `CC(C)(O)c1ncc(C(=O)N2CCc3[nH]cnc3[C@@H]2c2nc3c(F)cccc3s2)o1` [Example 1484, (R)-(4-(4-fluorobenzo[d]thiazol-2-yl)-6,7-dihydro-1H-imidazo[4,5-c]pyridin-5(4H)-yl)(2-(2-hydroxypropan-2-yl)oxazol-5-yl)methanone], which AC50 is on record?
Answer: Its AC50 is 1000 to 5000 nM.

Question: For `CC(C)(F)c1ncc(C(=O)N2CCc3[nH]cnc3[C@@H]2c2nc3c(F)cccc3s2)s1` [Example 1485, (R)-(4-(4-fluorobenzo[d]thiazol-2-yl)-6,7-dihydro-1H-imidazo[4,5-c]pyridin-5(4H)-yl)(2-(2-fluoropropan-2-yl)thiazol-5-yl)methanone], which AC50 is on record?
Answer: Its AC50 is 500 to 1000 nM.
